Data taken from US20210386756A1, “IMPROVEMENTS FOR PERFORMING AND FACILITATING THE RECOVERY AFTER HEMATOPOIETIC STEM CELL TRANSPLANTATION” (Centro de Investigaciones Energéticas, Medioambientales y …, priority 2018, published 2021).

Legend:
[1] = test system: hCD34+ hematopoietic progenitors; assay: In vitro toxicity of natural estrogens for hematopoietic progenitors (hCD34+ culture, FACS subsets); format: cell-based, human; conditions: for % CD34+/CD38− / % HSC / % MLP / % MPP: four days culture
Procedure: FIG. 9 relates the effect of different concentration of E1, E2, E3 and E4 in human hematopoietic progenitors. Human hematopoietic progenitors were culture in phenol red free media supplemented with 100 ng/mL SCF, 100 ng/ml FLT3L and 100 ng/ml TPO and different concentration of E1, E2, E3 and E4 (from 10 nM to 500 μM). FIG. 9A represents the fold increase of the number of hematopoietic cells after four days in culture. FIG. 9B indicates the total number of primitive hematopoietic progenitors (CD34^+/CD38^−) present in the culture, extrapolated from number of cells and the frequency of this population analyzed by FACS. […] Grey dashed lines point the value of control group, and red dashed lines indicate the initial values at day 0. (Kruskal-Wallis test; P<0.05, data from four independent experiments).
To assess the toxicity of the natural estrogens (E1, E2, E3 and E4) for hematopoietic progenitors, in vitro studies were performed. 5×10^4 hCD34^+ were cultured in a phenol red-free media, X-Vivo 20 (Lonza), in presence of 100 ng/ml SCF, 100 ng/ml FLT3L, 100 ng/ml TPO, 0.5% PS, 1% Glutamax (Thermofisher) and different concentrations of E1, E2, E3 or E4 (from 10 nM to 500 μM). Cell proliferation and immunophenotype of different hematopoietic subsets (CD34^+/CD38^−, HSC [CD34^+/CD38^−/CD45RA^−/CD90^+], Multipotent Progenitors [MPP, CD34^+/CD38^−/CD45RA^−/CD90^−], Multipotent Lymphoid Progenitors [MLP, CD34^+/CD38^−/CD45RA^+] were evaluated at day 0 and four days after culture.

[2] = test system: mouse MSCs (mCD140a+) and vascular endothelial cells (mCD144+); assay: Mouse BM niche analysis (MSCs and vascular endothelial cells) after transplant and estrogen treatment; format: in vivo; conditions: four months after transplant, versus vehicle-treated animals
Procedure: FIG. 12 refers to modulation of the hematopoietic niche by estrogens. […] FIG. 12B refers to the relative mouse vascular endothelial cells (mCD144+ or VE-Cadherin+) in the BM of the male mice transplanted with 5×10^4 hCB-CD34+ cells analyzed 4 months after transplantation. […] Data are presented by dots and box-plots that represent the interquartile range (p75, upper edge; p25, lower edge; p50, midline; p95, line above the box; and p5, line below the box). Significance was analyzed by Mann-Whitney U test and represented by **P<0.01.
To provide a further insight into the positive impact of estrogens on promoting human hematopoietic engraftment, we examined mesenchymal and vascular endotelial compartments of the mouse BM niche four months after being transplanted and treated with E2 (estradiol) or E4 (estetrol). The percentage of mouse MSCs (mCD140a+, also called Pdgfra+) and vascular endothelial cells (mCD144+, also called VE-Cadherin+) was analyzed in the non-hematopoietic compartment ([…]).

[3] = test system: human cord blood CD34+; assay: Human engraftment in male NSG mice transplanted with a limited CD34+ cell dose (5×10^3); format: in vivo, mouse
Procedure: FIG. 6A indicates the level of human engraftment, which was raised by E4 administration. […] (Kruskal-Wallis test; P=0.1150, 7-10 mice per group). […] Three-four months later, the animals were sacrificed and the human hematopoietic engraftment was analyzed by FACS. Human hematopoietic population was identified as the cells positive for hCD45-APC-Cy7 (Biolegend) and negative for mouse CD45.1-PE (Biolegend). To determine whether estrogen can improve hematopoietic reconstitution of low number of hematopoietic progenitors, male NSG were irradiated and transplanted with low doses of human cord blood CD34+ (5×103 hCD34+). The human engraftment was analyzed as described in Example 1.

[4] = target: T1, ESRα (Homo sapiens, UniProt P03372); conditions: cited from earlier work
T1 sequence (P03372 1-595): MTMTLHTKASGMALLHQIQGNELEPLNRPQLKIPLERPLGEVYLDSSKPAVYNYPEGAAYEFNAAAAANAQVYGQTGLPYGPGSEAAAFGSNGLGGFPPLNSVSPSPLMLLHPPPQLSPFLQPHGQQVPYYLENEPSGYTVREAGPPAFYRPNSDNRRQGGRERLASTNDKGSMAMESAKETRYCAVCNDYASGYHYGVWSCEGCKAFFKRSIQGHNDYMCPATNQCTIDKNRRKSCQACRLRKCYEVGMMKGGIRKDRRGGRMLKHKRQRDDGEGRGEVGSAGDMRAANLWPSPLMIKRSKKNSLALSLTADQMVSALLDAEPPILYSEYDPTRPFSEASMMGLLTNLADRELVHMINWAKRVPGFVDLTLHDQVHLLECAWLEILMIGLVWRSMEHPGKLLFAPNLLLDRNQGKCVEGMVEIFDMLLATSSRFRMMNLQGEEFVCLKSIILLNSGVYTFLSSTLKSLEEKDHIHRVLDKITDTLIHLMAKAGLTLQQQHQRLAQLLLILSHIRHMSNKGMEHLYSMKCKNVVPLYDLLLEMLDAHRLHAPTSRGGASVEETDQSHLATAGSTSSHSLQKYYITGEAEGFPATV

[5] = target: T2, sex hormone-binding globulin (SHBG) (Homo sapiens, UniProt P04278); conditions: cited from earlier work
T2 sequence (P04278 30-402): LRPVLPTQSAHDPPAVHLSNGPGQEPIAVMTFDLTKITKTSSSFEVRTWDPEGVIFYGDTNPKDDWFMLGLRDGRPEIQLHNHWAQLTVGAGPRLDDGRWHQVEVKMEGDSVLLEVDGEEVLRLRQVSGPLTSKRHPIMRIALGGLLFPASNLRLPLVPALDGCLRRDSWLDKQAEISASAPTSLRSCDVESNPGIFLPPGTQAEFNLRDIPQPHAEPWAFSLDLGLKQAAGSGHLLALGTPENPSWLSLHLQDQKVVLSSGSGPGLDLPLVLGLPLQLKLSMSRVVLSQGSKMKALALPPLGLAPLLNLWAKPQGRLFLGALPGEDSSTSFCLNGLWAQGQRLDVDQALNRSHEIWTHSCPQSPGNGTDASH

With C[C@]12CC[C@@H]3c4ccc(O)cc4CC[C@H]3[C@@H]1[C@@H](O)[C@@H](O)[C@@H]2O [E4, estetrol] the “toxicity for hematopoietic progenitor subpopulations” value ([1]; 10 nM to 500 μM, in vitro) was “less toxic”, the “% CD34+/CD38−” value ([1]; 10 nM) was 13.35 ± 0.87% and the “% HSC” value ([1]; 10 nM) was 1.75 ± 0.13%. For the same compound, the “% MLP” value ([1]; 10 nM) was 4.29 ± 0.44%, the “% MPP” value ([1]; 10 nM) was 4.39 ± 0.25% and the “% CD34+/CD38−” value ([1]; 100 nM) was 12.60 ± 0.68%. For the same compound, the “% HSC” value ([1]; 100 nM) was 1.67 ± 0.12%, the “% MLP” value ([1]; 100 nM) was 4.42 ± 0.16% and the “% MPP” value ([1]; 100 nM) was 4.35 ± 0.56%. The “% CD34+/CD38−” value ([1]; 1 μM) was 12.08 ± 1.22%, the “% HSC” value ([1]; 1 μM) was 1.86 ± 0.20% and the “% MLP” value ([1]; 1 μM) was 3.48 ± 0.73%. The “% MPP” value ([1]; 1 μM) was 4.89 ± 0.30%, the “% CD34+/CD38−” value ([1]; 10 μM) was 13.62 ± 0.54% and the “% HSC” value ([1]; 10 μM) was 2.03 ± 0.04%. The “% MLP” value ([1]; 10 μM) was 4.30 ± 0.29%, the “% MPP” value ([1]; 10 μM) was 4.57 ± 0.35% and the “% CD34+/CD38−” value ([1]; 100 μM) was 17.26 ± 2.24%. For the same compound, the “% HSC” value ([1]; 100 μM) was 3.67 ± 0.65%, the “% MLP” value ([1]; 100 μM) was 5.66 ± 1.49% and the “% MPP” value ([1]; 100 μM) was 3.85 ± 0.32%. For the same compound, the “% CD34+/CD38−” value ([1]; 500 μM) was 10.82 ± 2.79%, the “% HSC” value ([1]; 500 μM) was 3.76 ± 1.25% and the “% MLP” value ([1]; 500 μM) was 0.89 ± 0.18%. The “% MPP” value ([1]; 500 μM) was 3.11 ± 1.20%, the “number of mCD140a+ cells (mouse MSCs) in BM” value [2] was “increased” and the “proportion of engrafted mice (human engraftment above 0.1%)” value ([3]; 5×10^3 CB-CD34+) was 70%. For the same compound, the “change of the proportion of engrafted mice versus vehicle” value ([3]; limited HPC dose, engraftment above 0.1%) was “almost tripled”, the “Percentage of human hematopoietic reconstitution” value ([3]; low dose 5×103 hCD34+, mean +/− SEM) was 3.20 +/− 1.43 (n = 9) % and the “affinity for ER relative to β-estradiol” value [4] was “less affinity than β-estradiol”. For the same compound, the “affinity for ESRα versus ESRβ” value [4] was “high affinity for ESRα as compared to the ESRβ” and the “binding by SHBG” value [5] was “not bound”.
